Experimental data as given in paper PMC11329928, “Design, synthesis and structure-activity relationship (SAR) studies of an unusual class of non-cationic fatty amine-tripeptide conjugates as novel synthetic antimicrobial agents” (Frontiers in Pharmacology, 2024).
Where “and” joins values, the source holds several entries; their conditions need not be identical. Equal values may be shown once. Where a name gives a salt, the structure may show the parent alone.

Legend:
[1] = RP-HPLC retention time used to determine hydrophobicity; format: physicochemical; settings: analytical RP-HPLC, C18 Sunfire column (4.6 mm × 150 mm, 3.5 μm); A = 0.05% TFA in water, B = acetonitrile; 10% to 100% B in 20 min then isocratic 100% B 10 min; 217 and 254 nm; used as measure of hydrophobicity
Method: The purity of the lipopeptides was checked by analytical RP-HPLC on an Agilent Infinity instrument equipped with a Diode Array and a C18 Sunfire column (4.6 mm × 150 mm, 3.5 μm). As mobile phase A:B mixtures were used, where A = 0.05% TFA in water and B = acetonitrile. The samples were analyzed at 217 and 254 nm in a gradient from 10% of B to 100% of B in 20 min followed by isocratic 100% of B in 10 min.
Retention times were used to determine the hydrophobicity ([Neubauer et al., 2020]). HRMS (EI+) was carried out in an Agilent 6,520 Accurate-Mass Q-TOF LC/MS spectrometer using water/acetonitrile mixtures. Results can be found in Supplementary Section S3, S4.

[2] = system: Pseudomonas aeruginosa PAO1; assay: Growth inhibition screening of planktonic cultures (OD550/600); format: cell-based; set-up: key: (+++) full inhibition; (++) partial inhibition; (+) growth retardation; -: (−) no effect; settings: P. aeruginosa PAO1, 50 and 100 μM compound added at T1, OD550/600 followed 10 h, 37°C
Summary of the method: (§1)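 Early exponential-phase cultures (OD550/600 c. a. 0.15–0.2) were treated with DICAMs at 50 and 100 μM final, diluted from DMSO stocks into medium, and incubated 10 h at 37°C. Turbidity (OD550/600) was read every 20 min against untreated controls to track growth inhibition and lysis.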

S. pyogenes T = assay: Dose dependence of bacterial viability (CFU counting, Hill fit); format: cell-based, Streptococcus pyogenes; settings: for EC50 / Δlogmax, S. pyogenes T / SC (stationary concentration, Δlog = 0), S. pyogenes T: 2 h treatment, Hill fit; for EC50 / Δlogmax, S. pyogenes T / Decrease of the number of viable bacteria in the inoculum within 2 h: BHI; for EC50 / Δlogmax, S. pyogenes T / Decrease of the number of viable bacteria in the inoculum within 2 h / SC (stationary concentration, Δlog = 0), S. pyogenes T: 37°C; for EC50: read-out: K 1/2 (concentration yielding half-variation in Δlogmax), S. pyogenes T (converted); for Δlogmax, S. pyogenes T: maximum variation in viability; for Decrease of the number of viable bacteria in the inoculum within 2 h: S. pyogenes T; for Reduction of bacterial viability at 3 × SC, S. pyogenes T: after 2 h of incubation at 3 × SC; for SC (stationary concentration, Δlog = 0), S. pyogenes T: BHI medium, added at T1, 10^7–10^8 CFU/mL, CFU vs untreated controls
From the text: First, the substitution of the fatty amino chain of 18 carbon atoms of the reference compound DICAM 2 by either an OMe group (methylated tripeptide DICAM 5) or an amine with 12 carbon atoms (DICAM 9) abolished the activity against all three pathogens. However, the activity remained intact when the chain of the fatty amine of prototypes DICAMs 1 and 4 was two carbon atoms shorter (DICAM 10 and DICAM 12, respectively), based on S. pneumoniae and S. pyogenes results. […] Third, Glu and Ala were tolerated as C-terminal residues of the lipotripeptides. […] In addition, deletion of the C-terminal Glu (DICAM 13) eradicated the activity against S. pneumoniae and S. aureus. However, a delay and small inhibition of S. pyogenes ^T growth was still observed. Fourth, Glu (DICAMs 19 and 20) and Orn (DICAMs 21 and 22) were tolerated as N-terminal residues, with the impact of these modifications being pathogen-dependent. […] SAR studies continued by measuring the dose dependence of DICAM’s activity at T1 with all the compounds found to be active against S. pyogenes or S. aureus in the initial screening, and all but one compound in the case of S. pneumoniae. The OD values of bacterial cultures were monitored after DICAM addition, and the decrease in the number of viable bacteria was measured relative to controls (Figures 4–6; Supplementary Figure S1). As antibacterial efficacy may decline with the bacterium dose in the inoculum ([Belley et al., 2009]; [Udekwu et al., 2009]; [Luca et al., 2013]), the assays were performed using the bacterial concentrations necessary for the fluorescence experiments in Section 2.3 (10^7–10^8 CFU/mL). At these high bacterial densities, MICs were determined as the DICAM concentration at which bacteria neither grow nor are killed (the stationary concentration (SC)), following [Udekwu et al., 2009]. By fitting the logarithmic plot of cell viability decrease vs. the DICAM dose to a Hill function (see Section 5.2.3.1) we were able to determine the maximum variation in viability (Δlogmax = ∆log f - ∆log 0, where ∆log f and ∆log 0 are the upper and lower limits of Δlog) in the assay conditions, the SC concentration (Δlog = 0), the dose required for half-variation in Δlogmax (K 1/2), and the cooperativity of the antimicrobial effect (N H).
Susceptibility to DICAMs was first tested by growth-inhibition assays at 50 and 100 μM of compound. Briefly, working solutions at 5 mM or 10 mM DICAM in pure DMSO were prepared from DICAM stocks (40 mM in pure DMSO) and diluted with fresh culture medium to 5× the desired final concentration. Aliquots (50 µL) of these solutions were added to 200 µL of bacterium cultures grown to early exponential phase (OD550/600 c. a. 0.15–0.2 in sterile 96-well plates (Cultek, Spain). Incubation continued for 10 h at 37°C and turbidity (OD550/600) values were measured every 20 min to monitor growth and lysis, using a VersaMax microplate reader (Molecular Devices; United Kingdom). Next, the activity dependence on DICAM’s dose was examined by measuring the turbidity of treated and untreated cultures as a function of time. Also, the decay of bacterial viability (CFU/mL) at selected times of treatment was assessed by colony counting on LB-agar or TSA plates after overnight incubation at 37°C. By default, 10 μL of 10-fold serially diluted samples were plated, which set the lower detection limit at 10^2 CFU/mL (10^1 CFU/mL when 100 μL of the undiluted sample was seeded).
As antibacterial efficacy may decline with the bacterium dose in the inoculum ([Belley et al., 2009]; [Udekwu et al., 2009]; [Luca et al., 2013]), activity assays were performed using the bacterial concentrations required for the fluorescence experiments in Section 2.3 (10^7–10^8 CFU/mL). At such bacterial densities, MICs were determined as the DICAM concentration at which bacteria neither grow nor are killed under assay conditions (the stationary concentration (SC)), as indicated in Section 2.2. […]

Escherichia coli DH10B = assay: Growth inhibition screening of planktonic cultures (OD550/600); format: cell-based; set-up: key: (+++) full inhibition; (++) partial inhibition; (+) growth retardation; -: (−) no effect; settings: E. coli DH10B, 50 and 100 μM compound added at T1, OD550/600 followed 10 h, 37°C
Summary of the method: as §1

Staphylococcus aureus T = assay: as above; format: cell-based; set-up: key: (+++) full inhibition; (++) partial inhibition; (+) growth retardation; -: (−) no effect; settings: S. aureus T, 50 and 100 μM compound added at T1, OD550/600 followed 10 h, 37°C
Summary of the method: as §1

Compound	Retention time [1] [min]	Growth halt or lysis (50/100 μM), Pa [2]	EC50 (S. pyogenes T) [µM]	Δlogmax, S. pyogenes T (S. pyogenes T)	Growth halt or lysis (50/100 μM), Ec (Escherichia coli DH10B)	Growth halt or lysis (50/100 μM), Sa T (Staphylococcus aureus T)	Decrease of the number of viable bacteria in the inoculum within 2 h (S. pyogenes T)	Reduction of bacterial viability at 3 × SC, S. pyogenes T (S. pyogenes T)	SC (stationary concentration, Δlog = 0), S. pyogenes T (S. pyogenes T)
CCCCCCCCCCCCCCCCCCNC(=O)[C@H](CCC(=O)O)NC(=O)[C@H]1CCCN1C(=O)[C@H](CC(N)=O)NC(=O)OCc1ccccc1 [DICAM 1, Cbz-Asn- Pro -Glu-NH-C18H37]	21.41	-	8.3 ± 0.9	2.5 ± 0.1 logarithmic units					
CCCCCCCCCCCCCCCCCCNC(=O)[C@H](CCC(=O)O)NC(=O)[C@H]1CCCN1C(=O)[C@@H](N)CC(N)=O [DICAM 2, Asn- Pro -Glu-NH-C18H37 ·HCl]	12.14	-	14 ± 2	3.9 ± 0.4 logarithmic units	-	++	99.9–99.99%	94.5%–99.9	
CCCCCCCCCCCCCCCCCCNC(=O)[C@H](CCC(=O)O)NC(=O)[C@H]1CCCN1C(=O)[C@H](C)NC(=O)OCc1ccccc1 [DICAM 3, Cbz-Ala- Pro -Glu-NH-C18H37]	21.42	-	8.1 ± 0.4	5.4 ± 0.1 logarithmic units	-	-	99.9–99.99%	94.5%–99.9	3–5 µM and 3.0 ± 0.4 µM
CCCCCCCCCCCCCCCCCCNC(=O)[C@H](CCC(=O)O)NC(=O)[C@H]1CCCN1C(=O)[C@H](C)N [DICAM 4, Ala- Pro -Glu-NH-C18H37 ·HCl]	19.24	-	51 ± 10	6.8 ± 0.8 logarithmic units	-	++			10 ± 4 µM
CCCCCCCCCCCCCCCCNC(=O)[C@H](CCC(=O)O)NC(=O)[C@H]1CCCN1C(=O)[C@H](CC(N)=O)NC(=O)OCc1ccccc1 [DICAM 10, Cbz-Asn- Pro -Glu-NH-C16H33]	18.23	-	6.8 ± 0.7	2.6 ± 0.1 logarithmic units					
CCCCCCCCCCCCCCCCCCNC(=O)[C@H](C)NC(=O)[C@H]1CCCN1C(=O)[C@H](C)N [DICAM 14, Ala- Pro -Ala-NH-C18H37 · HCl]	19.50	-	41 ± 10	3.7 ± 0.8 logarithmic units	-	+++			22 ± 10 µM
CCCCCCCCCCCCCCCCCCNC(=O)[C@H](CCC(=O)O)NC(=O)[C@H]1CCCN1C(=O)[C@H](CCC(=O)O)NC(=O)OCc1ccccc1 [DICAM 19, Cbz-Glu- Pro -Glu-NH-C18H37]	21.22	-	7.1 ± 0.8	3.0 ± 0.2 logarithmic units	-	+		94.5%–99.9	4−5 µM and 3.8 ± 0.9 µM
CCCCCCCCCCCCCCCCCCNC(=O)[C@H](CCC(=O)O)NC(=O)[C@H]1CCCN1C(=O)[C@@H](N)CCC(=O)O [DICAM 20, Glu- Pro -Glu-NH-C18H37 · HCl]	18.71	-	17 ± 4	∼3.0 logarithmic units	-	++			8 ± 2 µM
CCCCCCCCCCCCCCCCCCNC(=O)[C@H](CCC(=O)O)NC(=O)[C@H]1CCCN1C(=O)[C@H](CCCN)NC(=O)OCc1ccccc1 [DICAM 21, Cbz-Orn- Pro -Glu-NH-C18H37]	19.70	-	38 ± 40	4 ± 2 logarithmic units	-	+			∼10 µM
CCCCCCCCCCCCCCCCCCNC(=O)[C@H](CCC(=O)O)NC(=O)[C@H]1CCCN1C(=O)[C@@H](N)CCCN [DICAM 22, Orn- Pro -Glu-NH-C18H37 · HCl]	16.91	-			-	+			
CCCCCCCCCCCCCCCCCCNC(=O)[C@H](CCC(=O)O)NC(=O)[C@H]1CCCN1C(=O)[C@H](C)NC(C)=O [DICAM 24, Ac-Ala- Pro -Glu-NH-C18H37]	21.23		7.2 ± 0.4	5.3 ± 0.1 logarithmic units	-	++	99.9–99.99%	94.5%–99.9	
Ala - Pro -Glu-NH-C18H37 · HCl [DICAM 23]	19.31	-			-	++			
